SMILES strings stand for the structures.

The text below walks through data of patent US12419305B2, “Antimicrobial compositions” (Firmenich SA, priority 2018, dated 2025).

In experiment [1] the test system is S. aureus ATCC 6538. Put plainly: BCT test (bacterial contact time), 60 s, log reduction / effect fraction; CI by Compusyn. It counts as cell-based, Staphylococcus aureus. The conditions noted are these: BCT 60 s, in 25% EtOH. As to the method:
(§1) E. coli, S. aureus, P. aeruginosa, and S. enterica: Separate suspensions of the E. coli ATCC 10536 strain, S. aureus ATCC 6538 strain, Pseudomonas aeruginosa ATCC 15442 strain, and the Salmonella enterica ATCC 10708 strain were prepared as follows: Stock cultures (stored at −80° C.) were thawed and sub-cultured onto Tryptic Soy Agar (TSA) agar plate media, and incubated at 37° C. for 24 h to obtain single colonies. Single colonies of the primary cultures were streaked onto TSA plates and incubated at 37° for 24 h to generate secondary cultures. Single colonies of secondary cultures picked and used to inoculate into 50 mL of TSB broth. The inoculated TSB broth was incubated at 37° C. at 180 rpm for 18 h. Aliquots (0.5 ml) of the 18 h culture were inoculated into 50 ml of fresh TSB broth, and incubated at 37° C. at 180 rpm for 2-3 hours. When the OD600 nm value of the broth reached 1-2, cells were harvested by centrifugation at 5000 rpm for 10 min, and then resuspended in fresh TSB broth at a concentration of 1-5×10^8 CFU/mL. These suspensions were used as the bacterial suspensions for the BCT test.
(§2) BCT Test: Test compositions at a range of concentrations (either combinations of more than one perfume ingredient, and comparative compositions comprising the single perfume ingredients) were prepared in ethanol. Five replicates of each test composition were added into 96-well microtiter plates (120 μl per well), with row B containing control compositions containing the ethanol solution alone. 120 μl of bacterial cell suspensions at a concentration of approximately 1×10^8 bacteria per mL (as prepared above) were added to each well of the microtiter plate. The bacterial suspensions were incubated with the test solutions for 45, 60, or 120 seconds. Following the incubation of the bacterial suspensions with the test solutions, serial dilutions of the bacterial suspensions were generated (three serial 1:10 dilutions, followed by 17 serial 1:2 dilutions), in multiwell microtiter plates.
(§3) Each plate was sealed and incubated at 37° C. under agitation (180 rpm). After incubation, the turbidity of the wells (OD600 nm) was determined using a Tecan microplate reader. Turbid wells were regarded as positive growth, due to the presence of viable cells. The total number of viable cells (log CFU) for each sample was calculated. And the log reduction for each test composition at the final concentration (dose) was calculated against the control sample of the ethanol solution.
(§4) Determination of Synergy via the Combination Index (CI): The CI was calculated using Compusyn software (ComboSyn, Inc., as created by Dr. Dorothy Chou in 2005), according to the manufacturer's instructions. The concentration of each test composition (combinations of more than one perfume ingredient, and comparative compositions comprising the single perfume ingredients used to generate the combination) and their corresponding effect fraction was entered, and the corresponding CI calculated.
(§5) When the calculated CI values were less than 0.9, the combination of perfume ingredients was regarded as having synergistic effect. When the calculated CI was between 1.0 a 0.9, the combination of perfume ingredients was regarded as having an additive effect. When the calculated CI was greater than 1.0, the combination of perfume ingredients was regarded as having an antagonistic effect.

For experiment [2], the system named is E. coli ATCC 10536. The experiment can be described thus: BCT test (bacterial contact time), 45 s, log reduction / effect fraction; CI by Compusyn. Format: cell-based, Escherichia coli. The conditions noted are these: 45 s, in 20% EtOH. The method, then:
as §1, §2, §3, §4, §5

Experiment [3] has as its system Salmonella enterica ATCC 10708. Put plainly: BCT test (bacterial contact time), 60 s, log reduction / effect fraction; CI by Compusyn. As to conditions: BCT 60 s, in 25% EtOH. Format: cell-based. As to the method:
as §1, §2, §3, §4, §5

As to `COC(C)(C)CCCC(C)C=O` (stereo not drawn) [Methoxymelonal], the Effect fraction came out at 0.020 in experiment [1] (Dose 0.600 % w/v); 0.110 in experiment [1] (Dose 0.800 % w/v); 0.360 in experiment [1] (Dose 0.900 % w/v); 0.700 in experiment [1] (Dose 1.000 % w/v); 0.970 in experiment [1] (Dose 1.200 % w/v). Moreover, the Log reduction turned out to be 0.1 in experiment [1] (Dose 0.600 % w/v); 0.8 in experiment [1] (Dose 0.800 % w/v); 2.6 in experiment [1] (Dose 0.900 % w/v); 5.1 in experiment [1] (Dose 1.000 % w/v); 7.1 in experiment [1] (Dose 1.200 % w/v).

In the case of `OCCc1ccccc1` [PEA], the Effect fraction came out at 0.00 in experiment [2] (dose 0.650 % w/v); 0.01 in experiment [2] (dose 0.700 % w/v); 0.11 in experiment [2] (dose 0.750 % w/v); 0.16 in experiment [2] (dose 0.800 % w/v); 0.60 in experiment [2] (dose 0.850 % w/v). The Log reduction in experiment [2] (dose 0.650 % w/v) stood at 0.0; in experiment [2] (dose 0.700 % w/v), 0.1; in experiment [2] (dose 0.750 % w/v), 0.8; in experiment [2] (dose 0.800 % w/v) it was 1.2; in experiment [2] (dose 0.850 % w/v) it was 4.3.

`CC(=O)OC(C)c1ccccc1` (stereo not drawn) [Styrallyl Acetate]: the Effect fraction amounted to 0.03 in experiment [2] (dose 0.120 % w/v); 0.09 in experiment [2] (dose 0.140 % w/v); 0.37 in experiment [2] (dose 0.160 % w/v); 1.00 in experiment [2] (dose 0.200 % w/v); 0.86 in experiment [2] (dose […] w/v). Moreover, the Log reduction is 0.3 in experiment [2] (dose 0.120 % w/v); 0.7 in experiment [2] (dose 0.140 % w/v); 2.7 in experiment [2] (dose 0.160 % w/v); 7.4 in experiment [2] (dose 0.200 % w/v); 6.4 in experiment [2] (dose […] w/v).

Regarding `O=C/C=C/c1ccccc1` [Cinnamic aldehyde], in experiment [1] (Staphylococcus aureus, ATCC6538, 1 min, Dose 0.25 % w/v), the log reduction at 0.25 % strength was determined as 0.3. In experiment [1] (Staphylococcus aureus, ATCC6538, 1 min, Dose 0.3 % w/v), the log reduction at 0.3 % strength was 2.9. Further, the log reduction at 0.325 % strength in experiment [1] (Staphylococcus aureus, ATCC6538, 1 min, Dose 0.325 % w/v) was found to be 4.2. For the same molecule, the log reduction at 0.35 % strength in experiment [1] (Staphylococcus aureus, ATCC6538, 1 min, Dose 0.35 % w/v) amounted to 6.5. In addition, the log reduction at 0.4 % strength in experiment [1] (Staphylococcus aureus, ATCC6538, 1 min, Dose 0.4 % w/v) was 7.1.

As for `OCc1ccccc1` [Benzyl alcohol], the log reduction at 1 % strength in experiment [2] (Escherichia coli, ATCC10536, 45 s, dose 1.000 % w/v) is 0.2. Moreover, the log reduction at 1.2 % strength in experiment [2] (Escherichia coli, ATCC10536, 45 s, dose 1.200 % w/v) worked out at 2. The log reduction at 1.3 % strength in experiment [2] (Escherichia coli, ATCC10536, 45 s, dose 1.300 % w/v) stood at 4.3. Further, the log reduction at 1.4 % strength in experiment [2] (Escherichia coli, ATCC10536, 45 s, dose 1.400 % w/v) was 5.9. Moreover, in experiment [2] (Escherichia coli, ATCC10536, 45 s, dose 1.600 % w/v), the log reduction at 1.6 % strength stood at 7.3.

`CCOC(=O)C=Cc1ccccc1` [Ethyl Cinnamate]: the log reduction at 0.03 % strength in experiment [2] (Escherichia coli, ATCC10536, 45 s, dose 0.030 % w/v) is 1. The log reduction at 0.035 % strength in experiment [2] (Escherichia coli, ATCC10536, 45 s, dose 0.035 % w/v) came out at 3.7. Also, the log reduction at 0.04 % strength in experiment [2] (Escherichia coli, ATCC10536, 45 s, dose 0.040 % w/v) was found to be 5.4. The log reduction at 0.045 % strength in experiment [2] (Escherichia coli, ATCC10536, 45 s, dose 0.045 % w/v) came out at 7.3.

As to `OC/C=C/c1ccccc1` [Cinnamic Alcohol Ord], the Effect fraction in experiment [2] (dose 0.200 % w/v) was 0.00; in experiment [2] (dose 0.250 % w/v), 0.02; in experiment [2] (dose 0.300 % w/v), 0.17; in experiment [2] (dose 0.350 % w/v) it was 0.52; in experiment [2] (dose 0.400 % w/v), 1.00. The Log reduction in experiment [2] (dose 0.200 % w/v) was 0; in experiment [2] (dose 0.250 % w/v), 0.2; in experiment [2] (dose 0.300 % w/v), 1.3; in experiment [2] (dose 0.350 % w/v), 4.0; in experiment [2] (dose 0.400 % w/v) it was 7.6.

Consider `CCC(CC(C)CC)=NO` (stereo not drawn) [Stemone], for which the Effect fraction in experiment [1] (Dose 0.1 % w/v) turned out to be 0.050; in experiment [1] (Dose 0.120 % w/v) it was 0.220; in experiment [1] (Dose 0.140 % w/v), 0.660; in experiment [1] (Dose 0.15 % w/v) it was 0.890; in experiment [1] (Dose 0.160 % w/v) it was 1.000. The Log reduction in experiment [1] (Dose 0.1 % w/v) amounted to 0.4; in experiment [1] (Dose 0.120 % w/v) it was 1.6; in experiment [1] (Dose 0.140 % w/v) it was 4.8; in experiment [1] (Dose 0.15 % w/v), 6.4; in experiment [1] (Dose 0.160 % w/v), 7.2.

Consider `COc1ccc(C=O)cc1` [Aldehyde Anisique], for which the Effect fraction in experiment [3] (Dose 0.4 % w/v) amounted to 0.190; in experiment [3] (Dose 0.42 % w/v) it was 0.370; in experiment [3] (Dose 0.46 % w/v), 0.670; in experiment [3] (Dose 0.5 % w/v), 1.000. Also, the Log reduction is recorded as 1.5 in experiment [3] (Dose 0.4 % w/v), 2.8 in experiment [3] (Dose 0.42 % w/v), 5.2 in experiment [3] (Dose 0.46 % w/v) and 7.7 in experiment [3] (Dose 0.5 % w/v).
